Converted amounts (≈) assume the structure as drawn.
What was measured:
[1] = tested on: collagen-induced arthritis (CIA) in male DBA/1 mice; test: CIA model, Example 3 (cumulative scores vs untreated controls); format: in vivo; details: Mus musculus
Description: The CIA model data were acquired according to the following protocol: • 1. Male DBA/1 mice were anaesthetized by i.p. injection of ketamine/xylazine (1.25 mg/ml:0.25 mg/ml, 100 μl/mouse). • 2. Anaesthetized mice were immunized intradermally at the base of the tail with 0.1 or 0.2 ml of an emulsion composed of 100 or 200 μg bovine type II collagen in Complete Freund's Adjuvant (50 μl/spot x 2 or 4 spots). • 3. At day 21 after the immunization, mice received an intradermal boost of 100 μl of an emulsion composed of 100 μg bovine type II collagen in Incomplete Freund's Adjuvant (50 μl/spot x 2 spots) • 4. After onset of disease symptoms (usually 3-4 days after boost), tetracycline derivatives were administered daily into mice via intraperitoneal or oral routes for 8 to 15 days. Methotrexate (12 mg/kg/day) or dexmethasone (4 mg/kg/day) was used as a control for inflammation suppression. • 5. The disease severity was scored daily for 8-15 days after the appearance of the symptoms. Disease severity was graded as following: • a. Visual clinical score for the presence of inflammation in the fingers/toes of the forepaws and hindpaws: • 1. Erythema and mild swelling confined to the mid-foot (tarsals) or ankle joint • 2. Erythema and mild swelling extending from the ankle to the mid-foot • 3. Erythema and moderate swelling extending from the ankle to the metatarsal joints • 4. Erythema and severe swelling encompassing the ankle, foot, and digits. • b. Clinical swelling score for the presence of paw edema in the forepaws and hindpaws: • Paw thickness was measured daily by an engineering micrometer after isofluorane inhalation or ketamine/xylazine (1.25 mg/ml:0.25 mg/ml, 100 μl/mouse) i.p. injection.
Daily scores and paw swelling measurements for each treatment group of mice were added over the total observation period to obtain a cumulative score. Cumulative scores were compared between untreated controls and treated groups to determine tetracycline-induced inhibition.

S. aureus RN450 = test: Antibacterial activity MIC, Gram+ (Table 9); format: cell-based; details: Staphylococcus aureus, CAMHB, 35° C., approximately 18 hr
Description: (§1) 2 mg of each compound is dissolved in 100 μl of DMSO. The solution is then added to cation-adjusted Mueller Hinton broth (CAMHB), which results in a final compound concentration of 200 μg per ml. The tetracycline compound solutions are diluted to 50 μL volumes, with a test compound concentration of 0.098 μg/ml. Optical density (OD) determinations are made from fresh log-phase broth cultures of the test strains. Dilutions are made to achieve a final cell density of 1×10^6 CFU/ml. At OD=1, cell densities for different genera should be approximately:
(§2) 50 μl of the cell suspensions are added to each well of microtiter plates. The final cell density should be approximately 5×10^5 CFU/ml. These plates are incubated at 35° C. in an ambient air incubator for approximately 18 hr. The plates are read with a microplate reader and are visually inspected when necessary. The MIC is defined as the lowest concentration of the tetracycline compound that inhibits growth.

E. coli 25922 = test: Antibacterial activity MIC, Gram- (Table 9); format: cell-based; details: Escherichia coli, CAMHB, 35° C., approximately 18 hr
Description: as §1, §2

[2] = tested on: cytokines (IL-1, IL-6, RANKL and MCP-1) and a matrix metalloproteinase (MMP-9); test: Paw extract biomarker ELISA, CIA mice: whole panel (statements in words); format: in vivo, mouse
Description: (§3) • 1. Male DBA/1 mice were immunized i.d. with an emulsion of 200 μg bovine type II collagen in Complete Freund's Adjuvant. • 2. On day 21, mice received i.d. boost of 100 μg collagen in Incomplete Freund's Adjuvant • 3. Compounds were administered i.p. daily for 7 days starting from disease onset (day 3-4 after boost). • 4. Foot swelling was measured by an engineering micrometer and disease severity was scored accordingly (1, erythema and mild swelling confined to the tarsal or ankle joint; 2, erythema and mild swelling extending from the ankle to the mid-foot; 3, erythema and moderate swelling extending from the ankle to the metatarsal joints; 4, erythema and severe swelling encompassing the ankle, foot, and digits). • 5. Change (Δ) of paw thickness=sum of paw thickness from 4 paws of a mouse (experimental)−sum of baseline paw thickness from 4 paws of the same mouse. • 6. % inhibition=cumulative A paw thickness (disease group−compound-treated group)/cumulative A paw thickness (disease group)
(§4) • 1. Paws were collected from mice after 5-7 days of dosing and dissected free of skin. • 2. The paws were then homogenized in ice-cold PBS (2 ml/4 paws/mouse) containing 1× protease inhibitor using a Polytron homogenizer. • 3. Debris and particles were removed from the homogenized samples by centrifugation. • 4. Liquid layers were collected for MMP-9, IL-1, IL-6, RANKL, MCP-1, and TNFα analysis using ELISA kits from R & D System.

[3] = tested on: collagen-induced arthritis (CIA) in male DBA/1 mice; test: Murine collagen-induced arthritis (CIA) model, Example 2; format: in vivo, mouse; details: for Change in Paw Thickness (mm) Mean: 12 mg/kg/day i.p.
Description: Four non-antibacterial analogues of minocycline (J, W, AF and AT) were synthesized and tested in the murine model of the disease, collagen-induced arthritis (CIA) (See supra). Male DBA/1 mice were immunized intradermally with 200 μg of bovine type II collagen and boosted with collagen three weeks later. Minocycline and four non-antibacterial minocycline derivatives were administered i.p. beginning after disease onset. Paw thickness was measured and animals were scored daily.
as §3

MMP-9 = test: Paw extract biomarker ELISA, CIA mice: MMP-9; format: in vivo, mouse; details: paw extracts from CIA mice
Description: as §3, §4

MCP-1 = test: Paw extract biomarker ELISA, CIA mice: MCP-1; format: in vivo, mouse; details: paw extracts from CIA mice
Description: as §3, §4

IL-1 = test: Paw extract biomarker ELISA, CIA mice: IL-1; format: in vivo, mouse; details: paw extracts from CIA mice
Description: as §3, §4

IL-6 = test: Paw extract biomarker ELISA, CIA mice: IL-6; format: in vivo, mouse; details: paw extracts from CIA mice
Description: as §3, §4

Structure (SMILES)	inhibition in vivo at 25 mg/kg [1]	MIC (S. aureus RN450)	MIC (E. coli 25922)	also measured
CN(C)c1cc(C2CC2)c(O)c2c1C[C@H]1C[C@H]3CC(O)=C(C(N)=O)C(=O)[C@@]3(O)C(O)=C1C2=O [Compound AV]	48%	1 µg/mL (≈ 2.2 µM)	> 64 µg/mL	–
CN(C)c1cc(-c2ccccc2)c(O)c2c1C[C@H]1C[C@H]3[C@H](N(C)C)C(O)=C(C(N)=O)C(=O)[C@@]3(O)C(O)=C1C2=O [Compound A]	42%	1 µg/mL (≈ 1.87 µM)	> 64 µg/mL	–
CCC(=O)c1cc(N(C)C)c2c(c1O)C(=O)C1=C(O)[C@]3(O)C(=O)C(C(N)=O)=C(O)[C@@H](N(C)C)[C@@H]3C[C@@H]1C2 [Compound M]	25%	8 µg/mL (≈ 15.6 µM)	> 64 µg/mL	–
CC(=O)c1cc(N(C)C)c2c(c1O)C(=O)C1=C(O)[C@]3(O)C(=O)C(C(N)=O)=C(O)C[C@@H]3C[C@@H]1C2 [Compound T]	44%	4 µg/mL (≈ 8.76 µM)	> 64 µg/mL	inhibition in vivo at 12 mg/kg ([1]; Dose 12 mg/kg): 10%
CCCc1cc(N(C)C)c2c(c1O)C(=O)C1=C(O)[C@]3(O)C(=O)C(C(N)=O)=C(O)[C@@H](N(C)C)[C@@H]3C[C@@H]1C2 [E]	44%	2 µg/mL (≈ 4 µM)	> 64 µg/mL	–
CCc1ccc2c(c1O)C(=O)C1=C(O)[C@]3(O)C(=O)C(C(N)=O)=C(O)[C@@H](N(C)C)[C@@H]3[C@@H](O)[C@@H]1[C@H]2C [G]	55%	0.5 µg/mL (≈ 1.06 µM)	16 µg/mL (≈ 33.9 µM)	–
CCc1cc(N(C)C)c2c(c1O)C(=O)C1=C(O)[C@]3(O)C(=O)C(C(N)=O)=C(O)[C@@H](N(C)C)[C@@H]3C[C@@H]1C2 [H]	41%	0.5 µg/mL (≈ 1.03 µM)	> 64 µg/mL	–
CO/N=C(\C)c1cc(N(C)C)c2c(c1O)C(=O)C1=C(O)[C@]3(O)C(=O)C(C(N)=O)=C(O)[C@@H](N(C)C)[C@@H]3C[C@@H]1C2 [K]	30%	4 µg/mL (≈ 7.57 µM)	> 64 µg/mL	–
CN(C)[C@@H]1C(O)=C(C(N)=O)C(=O)[C@@]2(O)C(O)=C3C(=O)c4c(O)ccc(C5=CCNCC5)c4C[C@H]3C[C@@H]12 [L]	48%	2 µg/mL (≈ 4.04 µM)	64 µg/mL (≈ 129 µM)	–
CN(Cc1cnc2nc(N)nc(N)c2n1)c1ccc(C(=O)N[C@@H](CCC(=O)O)C(=O)O)cc1 [Methotrexate, methotrexate, reference compound]	–	–	–	Footpad tissue levels of cytokines (IL-1, IL-6, RANKL and MCP-1) and MMP-9 after therapeutic treatment [2]: decreased; % Inhibition (Change in Paw Thickness) AVG ([3]; 12 mg/kg): 45%; % Inhibition (Clinical Score) AVG ([3]; 12 mg/kg): 25%; Change in Paw Thickness (mm) Mean ([3]; day 1 of dosing): 0.77 mm; Change in Paw Thickness (mm) Mean ([3]; day 2 of dosing): 0.68 mm; Change in Paw Thickness (mm) Mean ([3]; day 3 of dosing): 0.71 mm; Change in Paw Thickness (mm) Mean ([3]; day 4 of dosing): 0.68 mm; Change in Paw Thickness (mm) Mean ([3]; day 5 of dosing): 0.67 mm; Change in Paw Thickness (mm) Mean ([3]; day 6 of dosing): 0.56 mm; Change in Paw Thickness (mm) Mean ([3]; day 7 of dosing): 0.45 mm; Change in Paw Thickness (mm) Mean ([3]; day 8 of dosing): 0.28 mm; Percent level of Biomarker Tissue [c] Compared to Untreated Control, MMP-9 AVG (MMP-9): 52%; Percent level of Biomarker Tissue [c] Compared to Untreated Control, MCP-1 AVG (MCP-1): 37%; Percent level of Biomarker Tissue [c] Compared to Untreated Control, IL-1 AVG (IL-1): 16%; Percent level of Biomarker Tissue [c] Compared to Untreated Control, IL-6 AVG (IL-6): 20%
CN(C)[C@@H]1C(O)=C(C(N)=O)C(=O)[C@@]2(O)C(O)=C3C(=O)c4c(O)ccc(-c5ccc(O)cc5)c4C[C@H]3C[C@@H]12 [N]	21%	0.06 µg/mL (≈ 0.118 µM)	0.5 µg/mL (≈ 0.987 µM)	–
CN(C)c1cc(-c2ncco2)c(O)c2c1C[C@H]1C[C@H]3[C@H](N(C)C)C(O)=C(C(N)=O)C(=O)[C@@]3(O)C(O)=C1C2=O [O]	26%	32 µg/mL (≈ 61 µM)	> 64 µg/mL	–
CN(C)c1cc(-c2ccsc2)c(O)c2c1C[C@H]1C[C@H]3[C@H](N(C)C)C(O)=C(C(N)=O)C(=O)[C@@]3(O)C(O)=C1C2=O [P]	34%	0.5 µg/mL (≈ 0.927 µM)	> 64 µg/mL	–
CN(C)[C@@H]1C(O)=C(C(N)=O)C(=O)[C@@]2(O)C(O)=C3C(=O)c4ccccc4C[C@H]3C[C@@H]12 [Q]	28%	0.5 µg/mL (≈ 1.25 µM)	32 µg/mL (≈ 80.3 µM)	–
CN(C)c1ccc(-c2cc(N(C)C)c3c(c2O)C(=O)C2=C(O)[C@]4(O)C(=O)C(C(N)=O)=C(O)[C@@H](N(C)C)[C@@H]4C[C@@H]2C3)cc1 [R]	32%	2 µg/mL (≈ 3.47 µM)	> 64 µg/mL	–
CN(C)c1cc(-c2ccc(C(N)=O)cc2)c(O)c2c1C[C@H]1C[C@H]3[C@H](N(C)C)C(O)=C(C(N)=O)C(=O)[C@@]3(O)C(O)=C1C2=O [S]	46%	> 64 µg/mL	> 64 µg/mL	–
CN(C)c1cc(C(=O)O)c(O)c2c1C[C@H]1C[C@H]3CC(O)=C(C(N)=O)C(=O)[C@@]3(O)C(O)=C1C2=O [U]	50%	> 64 µg/mL	> 64 µg/mL	–
CCCNC(=O)c1cc(N(C)C)c2c(c1O)C(=O)C1=C(O)[C@]3(O)C(=O)C(C(N)=O)=C(O)C[C@@H]3C[C@@H]1C2 [V]	43%	2 µg/mL (≈ 4 µM)	> 64 µg/mL	–
CN(C)c1cc(-c2ncco2)c(O)c2c1C[C@H]1C[C@H]3CC(O)=C(C(N)=O)C(=O)[C@@]3(O)C(O)=C1C2=O [X]	40%	2 µg/mL (≈ 4.15 µM)	> 64 µg/mL	–
CN(C)c1cc(C(=O)N2CCCCC2)c(O)c2c1C[C@H]1C[C@H]3CC(O)=C(C(N)=O)C(=O)[C@@]3(O)C(O)=C1C2=O [Y]	22%	> 64 µg/mL	> 64 µg/mL	–
CCO/N=C(\C)c1cc(N(C)C)c2c(c1O)C(=O)C1=C(O)[C@]3(O)C(=O)C(C(N)=O)=C(O)[C@@H](N(C)C)[C@@H]3C[C@@H]1C2 [Z]	32%	4 µg/mL (≈ 7.37 µM)	> 64 µg/mL	–
